According to patent US20090155338A1, “Chronotherapeutic Ocular Delivery System Comprising a Combination of Prostaglandin and a Beta-Blocker for Treating Primary Glaucoma” (ASTON UNIVERSITY, priority 2005, published 2009):
Counter-ions that a name gives are not always drawn. Values belong to the molecule of their own block, whether it stands above or below them.

Tests used:
[1] = test system: IOP; conditions: cited from earlier work; for efficiency in decreasing the 24-h IOP: compared with agents that decrease AH production
[2] = In vitro delivery of drug from ocular inserts in a humidified Franz-diffusion cell, artificial lachrymal fluid receiver, HPLC; format: physicochemical
Excerpt: Delivery is monitored in vitro using a Franz-diffusion cell, with the insert in contact with a dialysis membrane to provide support. A membrane with an appropriate molecular weight cut-off is used to allow the passage of pharmaceutical product but not polymer. The receiver solution is an artificial lachrymal fluid, containing NaHCO3 2.2 g/l; NaCl 6.26 g/l; KCl 1.79 g/l; CaCl2.2H2O 0.0735 g/l; MgCl2.6H2O 0.0964 g/l in distilled water (pH to 7.5 with 0.1 M HCl). The temperature used in the diffusion cells is controlled so the internal temperature is 32° C. (the temperature of the corneal surface). The tops of the diffusion cells are sealed using parafilm and the system equilibrated overnight (to give a humid environment). The insert is weighed, then placed on the dialysis membrane and resealed. Samples of delivered pharmaceutical product are removed from the receiver fluid and replaced with fresh liquid to maintain a constant volume. Pharmaceutical product in the receiver fluid is analysed by HPLC. Samples of 1 ml are withdrawn and replaced at given intervals through the side arm. The insert is placed in the donor at time 0. Samples were analysed using HPLC methods described above. It is recommended that betaxolol is analysed within 24 h, or samples frozen. The quantity of drug which has been released at any given time can be calculated using the following equation: […] wherein: Vr is the volume of receiver (ml) Vs the sample volume C[n] is the concentration in the dissolution medium (mg/l) ΣC[m] is the sum total of previous concentrations (mg/l) Mt is the drug released at time t (mg)

[3] = cited from earlier work
[4] = cited from earlier work; remark: listed apart in the source
[5] = hydrochloride salt, cited from earlier work

Compound: CCNC(=O)CCC/C=C\C[C@@H]1[C@@H](/C=C/[C@@H](O)CCc2ccccc2)[C@H](O)C[C@@H]1O [bimatoprost]
efficiency in decreasing the 24-h IOP [1]: more efficient in decreasing the 24-h IOP

timolol released by 6 hours from the beginning of the experiment ([2]; laminated travoprost/timolol insert, 6 hours): over 90%
timolol released for the first 5 hours ([2]; laminated travoprost/timolol insert, first 5 hours): essentially no timolol was released
Compound: CC(C)(C)NC[C@H](O)COc1nsnc1N1CCOCC1 [timolol, timolol maleate]
capacity in decreasing IOP at night ([1]; night): reduced capacity in decreasing IOP at night

Compound: CC(C)OC(=O)CCC/C=C\C[C@@H]1[C@@H](CC[C@@H](O)CCc2ccccc2)[C@H](O)C[C@@H]1O [latanoprost]
solubility in acetone and ethanol ([3]; acetone and ethanol): soluble
solubility in water ([3]; water): insoluble
efficiency in decreasing the 24-h IOP [1]: more efficient in decreasing the 24-h IOP

period over which travoprost was released at a substantially constant rate ([2]; laminated travoprost/timolol insert, humidity, 32° C., FIG. 5): about 8 hours
period over which travoprost was released at a substantially-constant rate ([2]; single layer PEO insert with 10% carbopol, travoprost alone, humidity, 32° C., FIG. 4): about 8 hours
Compound: CC(C)OC(=O)CCC/C=C\C[C@@H]1[C@@H](/C=C/[C@@H](O)COc2cccc(C(F)(F)F)c2)[C@H](O)C[C@@H]1O [travoprost]
efficiency in decreasing the 24-h IOP [1]: more efficient in decreasing the 24-h IOP

Compound: O=C(O)CCC/C=C\C[C@@H]1[C@@H](CC[C@@H](O)CCc2ccccc2)[C@H](O)C[C@@H]1O [latanoprost acid]
half-life in aqueous humor [4]: 2.8 h

Compound: CC(C)NCC(O)COc1ccc(CCOCC2CC2)cc1 (stereo not shown) [Betaxolol]
time of maximum effect ([5]; after topical administration): about 2 hours
onset of action ([5]; topical administration): ≤ 30 min
